{"source": "patent US20120128639A1", "about": "“In Vitro Production Of Oligodendrocytes From Human Umbilical Cord Stem Cells” (UNIVERSITY OF CENTRAL FLORIDA RESEARCH FOUNDATION, INC., priority 2009, published 2012)", "key": {"[1]": {"test_system": "human multipotent progenitor cells (MLPCs) from umbilical cord", "settings": "3D environment; for need of the growth factor for process formation: presence or absence in medium", "protocol": "MLPCs were seeded on DETA-coated glass coverslips (18 mm) at a density of 4×10^3 cells/cm^2 in growth medium. After 3 days, at about 60% confluency, cells were incubated for 24 hours in pre-induction medium, consisting of DMEM, 15% FBS. FGF-2, EGF (20 ng/ml each, R & D Systems, Minneapolis, Minn.) and PDGF-AA (10 ng/ml, Chemicon International, Temecula, Calif.). To initiate differentiation, the pre-induction medium was removed, the cells were washed 2× with Hanks' balanced salts solution (Gibco BRL) and transferred to serum-free differentiation medium.\nConstruction of 3D Environment MLPCs were plated on DETA-coated glass coverslips (18 mm) in growth medium. At about 60% confluence, growth medium was replaced with pre-induction medium. After the medium replacement, another set of coverslips was placed on the top of the cells. Prior to the placement, top coverslips were ethanol sterilized and washed in the pre-induction medium. After 24 hours the pre-induction medium was removed, the cells were washed 2× with Hanks' Balanced Salts Solution and transferred to serum-free differentiation medium.\nPhase-contrast images were taken with a commercial Nikon Coolpix 990 camera using the Zeiss Axiovert S100 microscope. Pictures were analyzed using Scion Image Software (Scion Corp., Frederick, Md.).\nThe morphological and immunocytochemical quantification was performed on undifferentiated stem cells or cells during various differentiation stages. For each coverslip, at least 10 pictures were taken from randomly chosen views under 200× magnification. All the marker-positive cells were counted, as well as the total number of cells in these views. At least three coverslips in each group were quantified and data were expressed as average±standard deviation (SD). Statistical differences between different experimental groups were analyzed by Student's t-test."}, "α1-ARs": {"test_system": "α1-ARs", "experiment": "Immunocytochemical analysis of α1-AR expression in MLPCs", "type": "cell-based, human", "settings": "undifferentiated MLPCs; 24 hrs treatment with bFGF alone", "protocol": "(§1) To characterize cells by immunocytochemistry, the top coverslips, if present, were first carefully removed. Cells were then briefly washed with Hanks' balanced salts solution and fixed in 4% paraformaldehyde for about 18 min. Fixed cells were stored in PBS, permeabilized with 0.5% Triton 100× in PBS for 7 min. blocked with 5% donkey serum for 1 hr, followed by incubation with primary antibody overnight at 4° C. Primary antibodies were mouse monoclonal A2B5 (MAB312, 1:250). O4 (MAB345, 1:100). O1 (MAB344, 1:200), MBP (1:25), rabbit polyclonal anti-galactocerebroside (AB142, 1:200), all from Chemicon, mouse monoclonal beta-2-AR (sc-81577, 1:200), rabbit polyclonal beta-1AR (sc-567, 1:250) from Santa Cruz Biotechnology, and alpha-1-AR (ab3462, 1:1000, Abcam Inc. Cambridge, Mass.). Following a PBS washing, cells were incubated with an Alexa Fluor 488-conjugated anti-mouse IgG or Alexa Fluor 488-conjugated anti-rabbit IgG for 2 hours at room temperature. After a PBS washing, the coverslips were mounted with Vectashield mounting medium (H1000, Vector Laboratories, Burlingame, Calif.) onto slides. For visualizing cellular nuclei, the specimens were counterstained with DAPI. Immunoreactivity was observed and analyzed by using an Ultra VIEW™ LCI confocal imaging system (Perkin Elmer)."}, "[2]": {"test_system": "human multipotent progenitor cells (MLPCs) from umbilical cord", "experiment": "Immunocytochemical analysis of MLPC differentiation in 3D environment (NE or AR agonists)", "type": "cell-based", "settings": "for cells stained positively for A2B5 / cells stained positively for O1 galactocerebroside / cells stained positively for O4 / cells stained positively for MBP: 30 days of differentiation, 20 μM added daily", "protocol": "To characterize cells by immunocytochemistry, the top coverslips, if present, were first carefully removed. […] Cambridge, Mass.). Following a PBS washing, cells were incubated with an Alexa Fluor 488-conjugated anti-mouse IgG or Alexa Fluor 488-conjugated anti-rabbit IgG for 2 hours at room temperature. After a PBS washing, the coverslips were mounted with Vectashield mounting medium ([…], Vector Laboratories, Burlingame, Calif.) onto slides. For visualizing cellular nuclei, the specimens were counterstained with DAPI. Immunoreactivity was observed and analyzed by using an Ultra VIEWTM LCI confocal imaging system (Perkin Elmer)."}, "[3]": {"test_system": "human multipotent progenitor cells (MLPCs) from umbilical cord", "experiment": "Morphological analysis of MLPC differentiation in 2D environment", "type": "cell-based", "settings": "for need of the factor for the desired morphology (omission from differentiation medium): 15 days in differentiation medium", "method": "MLPCs were seeded on DETA-coated glass coverslips (18 mm) at a density of 4×10^3 cells/cm^2 in growth medium. After 3 days, at about 60% confluency, cells were incubated for 24 hours in pre-induction medium, consisting of DMEM, 15% FBS. […] To initiate differentiation, the pre-induction medium was removed, the cells were washed 2× with Hanks' balanced salts solution (Gibco BRL) and transferred to serum-free differentiation medium."}, "[4]": {"test_system": "human multipotent progenitor cells (MLPCs) from umbilical cord", "experiment": "Immunocytochemical analysis of MLPC differentiation into oligodendrocyte lineage in 2D environment", "type": "cell-based", "protocol": "as §1"}, "[5]": {"settings": "8 days of differentiation, differentiation medium with 20 μM NE"}}, "note": "“And” between values parts separate entries of the source, which are not always exact repeats. Equal entries are not always repeated. “Also recorded” adds a separate entry of the source."}
{"molecule": "bFGF: growth factor in pre-induction and differentiation medium", "values": [{"measurement": "need of the growth factor for process formation", "setting": "[1]", "value": "not essential"}, {"measurement": "nuclear expression of α1-ARs", "setting": "α1-ARs", "value": "significant increase in staining intensity; also recorded: increase nuclear expression of α1-ARs"}]}
{"molecule": "CNC[C@H](O)c1cccc(O)c1", "note": "[phenylephrine]", "values": [{"measurement": "cells stained positively for A2B5", "setting": "[2]", "value": "40.5±3.4", "unit": "%"}, {"measurement": "cells stained positively for O1 galactocerebroside", "setting": "[2]", "value": "15.2±1.5", "unit": "%"}, {"measurement": "cells stained positively for O4", "setting": "[2]", "value": "39.8±2.8", "unit": "%"}, {"measurement": "cells with more mature morphology with developed processes", "setting": "[1]; day 30", "value": "10% and 15%"}, {"measurement": "cells that began to develop processes", "setting": "[1]; within 15 days of differentiation", "value": "approximately 40%"}]}
{"molecule": "COC(=O)[C@@]1(O)C[C@H]2O[C@]1(C)n1c3ccccc3c3c4c(c5c6ccccc6n2c5c31)C(=O)NC4", "note": "[K252a]", "values": [{"measurement": "need of the factor for the desired morphology (omission from differentiation medium)", "setting": "[3]", "value": "essential"}]}
{"molecule": "PDGF", "values": [{"measurement": "need of the growth factor for process formation", "setting": "[1]", "value": "required"}]}
{"molecule": "CC(C)NCC(O)c1ccc(O)c(O)c1", "note": "(centres unmarked) [isoproterenol]", "values": [{"measurement": "cells stained positively for A2B5", "setting": "[2]", "value": "57.9±4.9", "unit": "%"}, {"measurement": "cells stained positively for MBP", "setting": "[2]", "value": "negative"}, {"measurement": "cells stained positively for O1 galactocerebroside", "setting": "[2]", "value": "negative"}, {"measurement": "cells stained positively for O4", "setting": "[2]", "value": "42.5±2.7", "unit": "%"}, {"measurement": "cells displaying a bipolar morphology", "setting": "[1]; daily treatment, first 15 days, unchanged within 30 days", "value": "approximately 60%"}]}
{"molecule": "NC[C@H](O)c1ccc(O)c(O)c1", "note": "[NE, norepinephrine]", "values": [{"measurement": "MBP staining", "setting": "[2]; 20 days of differentiation", "value": "negative"}, {"measurement": "O1 staining", "setting": "[2]; 20 days of differentiation", "value": "negative"}, {"measurement": "cells stained positively for A2B5", "setting": "[2]", "value": "57.7% and 57.7±3.6%"}, {"measurement": "cells stained positively for MBP", "setting": "[2]", "value": "15.2% and 15.2±0.5%"}, {"measurement": "cells stained positively for O4", "setting": "[2]", "value": "79.6% and 79.6±2.9%"}, {"measurement": "survival of differentiated cells in culture", "setting": "[1]", "value": "more than 40 days"}, {"measurement": "expression of MBP", "setting": "[4]; 8 days of differentiation", "value": "absent"}, {"measurement": "cells with positive staining for A2B5", "setting": "[4]; [5]", "value": "72.4% and 72.4±3.4%"}, {"measurement": "cells with positive staining for O4", "setting": "[4]; [5]", "value": "69.9% and 69.9±4.9%"}, {"measurement": "cells with positive staining for A2B5", "setting": "[4]; day 15 of differentiation", "value": 70.3, "unit": "%"}, {"measurement": "cells with positive staining for O4", "setting": "[4]; day 15 of differentiation", "value": 69.7, "unit": "%"}, {"measurement": "MBP staining", "setting": "[4]; day 20 of differentiation", "value": "negative"}, {"measurement": "O1 staining", "setting": "[4]; day 20 of differentiation", "value": "negative"}, {"measurement": "cells A2B5 positive", "setting": "[4]; day 20 of differentiation", "value": "35.0% and 35.0±4.8%"}, {"measurement": "cells O4 positive", "setting": "[4]; day 20 of differentiation", "value": "49.7% and 49.7±7.9%"}, {"measurement": "expression of MBP", "setting": "[4]; differentiating cells, time not stated (FIG. 3B)", "value": "absent"}, {"measurement": "need of the factor for the desired morphology (omission from differentiation medium)", "setting": "[3]", "value": "essential"}, {"measurement": "cells that developed multiple processes", "setting": "[3]; within 8 days of differentiation", "value": "approximately 70%"}]}
